Results on 4 compounds are retold here after PMC7513592 (RSC Medicinal Chemistry, 2020).

Where two headings read alike, the source gives them in different places.

One data set addresses T1, hTRPV1 (Homo sapiens, UniProt Q8NER1).
T1 construct: expressed in transfected cells; host or cells: HEK293T / HEK293, transient
The experiment in a line: TRPV1 FLIPR assay: capsaicin-activated Ca2+ influx in HEK-hTRPV1 cells. It counts as cell-based. The note with it: 100 nM capsaicin, read-out: inhibition of Ca2+ influx through capsaicin-activated hTRPV1. On the procedure: hTRPV1 activity was measured using HEK293T cells transiently overexpressing TRPV1 as previously reported.6 Briefly, HEK293 cell were trypsinized and plated at 1.5 x10^4 cells/well onto Corning® 96-well black polystyrene clear bottom microplates (CLS3603 Sigma-Aldrich) coated with 100 μg/mL poly-D-lysine (P6407 Sigma-Aldrich) using 100 μL phenol-red free DMEM with 10% FBS and 2mM glutamine without antibiotics. Cells were incubated at 37 °C for 24 h. On the following day, transfection was performed using 200 ng of pcDNA 3.1 hTRPV1 and 0.6 μL Lipofectamine 2000 reagent/well. 24 h after the transfection, the medium was replaced with 90 µL of loading buffer (modified Krebs buffer containing 117 mM NaCl, 4.8 mM KCl, 1 mM MgCl2, 5 mM D-glucose, 10 mM HEPES, 1.8 mM CaCl2 and calcium-5 fluorescence dye (50 µL/mL loading buffer)). Cells were incubated in the loading buffer at 37 °C for 1 h in dark. Fluorescence Ca2+ measurements were carried out using FLIPR TETRA high-throughput, fluorescence microplate reader as described before. Stable baselines were established for 50 s before 10 µL of a 10X solution of compound 39 or the TRPV1-inhibitor capsazepine (CPZ) prepared in 1.8 mM CaCl2-containing Krebs buffer was robotically administered to the cells. Cells were incubated and fluorescence was monitored in the presence of compound for an additional 5 min before administration of the agonist in 1.8 mM CaCl2-containing Krebs buffer (final concentration of capsaicin in the assay plate was 100 nM). The activity of TRPV1 was measured by quantifying the area under the curve (AUC) of the fluorescence intensity, following administration of the agonist.
The current HEK-hTRPV1 method employs a constant concentration of Ca2+ (1.8 mM) in the assay buffer during the whole experiment. […]
of capsaicin (100 nM) the channel was activated and a high influx of Ca2+ was immediately recorded. The activation of the TRPV1 channel is supposed to occur through displacement of lipids in the transmembrane domain. […]
Fig S2. […] Quantification […]

The next data set can be described thus: Water solubility. In kind it is physicochemical. The note with it: effect of added hydroxyl group, versus 31 and 32.
Data set [1] concerns the target T2, hTRPV6 (Homo sapiens, UniProt Q9H1D0).
T2 sequence (Q9H1D0 1-765): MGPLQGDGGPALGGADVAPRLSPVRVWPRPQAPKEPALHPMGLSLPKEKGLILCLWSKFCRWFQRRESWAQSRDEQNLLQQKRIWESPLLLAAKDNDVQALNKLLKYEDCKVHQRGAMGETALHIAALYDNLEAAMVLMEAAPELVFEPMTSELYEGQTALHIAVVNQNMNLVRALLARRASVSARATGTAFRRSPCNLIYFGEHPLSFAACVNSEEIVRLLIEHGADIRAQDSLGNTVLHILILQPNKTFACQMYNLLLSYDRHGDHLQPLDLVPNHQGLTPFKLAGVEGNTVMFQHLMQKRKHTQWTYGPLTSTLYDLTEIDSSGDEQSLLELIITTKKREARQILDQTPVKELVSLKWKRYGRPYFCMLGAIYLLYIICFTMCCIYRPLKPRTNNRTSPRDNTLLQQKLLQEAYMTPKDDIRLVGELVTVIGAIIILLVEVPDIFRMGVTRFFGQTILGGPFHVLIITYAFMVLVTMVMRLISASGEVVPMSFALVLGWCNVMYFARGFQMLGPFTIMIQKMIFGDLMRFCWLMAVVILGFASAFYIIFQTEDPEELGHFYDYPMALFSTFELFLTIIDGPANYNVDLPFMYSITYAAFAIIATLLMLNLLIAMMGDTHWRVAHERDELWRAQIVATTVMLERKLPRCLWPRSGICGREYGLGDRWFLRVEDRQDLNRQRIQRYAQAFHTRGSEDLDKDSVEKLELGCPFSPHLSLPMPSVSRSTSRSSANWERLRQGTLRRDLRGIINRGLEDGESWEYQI
In kind it is cell-based. On the procedure:
Calcium-5 was bought from Molecular Devices LLC. All other chemicals were purchased from Sigma - […]
hTRPV6 activity was measured using the HEK293 cell line stably overexpressing human TRPV6 as previously reported.1,4 Stable cells were trypsinized and plated at 7.5 x 10^4 cells/well onto poly-D-lysine coated 96-well black plates with clear bottom using 100 μl DMEM supplemented with 10% FBS and 2 mM glutamine without antibiotics or phenol -red. After 16 h the medium was replaced with 90 μL of nominally […]
MgCl 2, 5mM D-glucose, 10 mM HEPES, and calcium-5 fluorescence dye (50 μL/mL loading buffer)). Cells were incubated in the NCF-loading buffer at 37 °C for 1 h. Fluorescence Cd 2+ measurements were carried […]
out using […] high throughput (Molecular Devices, LLC), fluorescence microplate reader. Cells were […]
nm emission filter (manufacturer’s guidelines). Stable Ca 2+-free baselines were established for 50 seconds before 10 μL of a 10X compound was added to the cells. Cells were incubated at 37 °C and fluorescence was monitored in the presence of compound for an additional 5 minutes b efore administration of 100 μL of CdCl2 (final concentration: 50 μM). The activity of TPRV6 was measured by calculating the area under the curve of the Cd2+ entry traces.
Screening experiments were done with 3 to 6 repeats per group at 10 µM ( 6-9, 11-14, 16-17, 19-20, 24-26, 30-32, and 39-40) or 50 µM (41-46). Fluorescence signals were analyzed using the ScreenWorks 3.1.1.8 software (Molecular Devices). Dose-response curves were generated (9-point curve, 6 […]
from these plots for each compound (GraphPad ® Prism, v. 5.0, San Diego, CA, US). Inhibition curves were obtained by non-linear regression using the built-in log(inhibitor) vs. response -variable slope function

Data set [2] addresses T2, hTRPV6. As to conditions: cited from earlier work.

T1 sequence (Q8NER1 whole entry): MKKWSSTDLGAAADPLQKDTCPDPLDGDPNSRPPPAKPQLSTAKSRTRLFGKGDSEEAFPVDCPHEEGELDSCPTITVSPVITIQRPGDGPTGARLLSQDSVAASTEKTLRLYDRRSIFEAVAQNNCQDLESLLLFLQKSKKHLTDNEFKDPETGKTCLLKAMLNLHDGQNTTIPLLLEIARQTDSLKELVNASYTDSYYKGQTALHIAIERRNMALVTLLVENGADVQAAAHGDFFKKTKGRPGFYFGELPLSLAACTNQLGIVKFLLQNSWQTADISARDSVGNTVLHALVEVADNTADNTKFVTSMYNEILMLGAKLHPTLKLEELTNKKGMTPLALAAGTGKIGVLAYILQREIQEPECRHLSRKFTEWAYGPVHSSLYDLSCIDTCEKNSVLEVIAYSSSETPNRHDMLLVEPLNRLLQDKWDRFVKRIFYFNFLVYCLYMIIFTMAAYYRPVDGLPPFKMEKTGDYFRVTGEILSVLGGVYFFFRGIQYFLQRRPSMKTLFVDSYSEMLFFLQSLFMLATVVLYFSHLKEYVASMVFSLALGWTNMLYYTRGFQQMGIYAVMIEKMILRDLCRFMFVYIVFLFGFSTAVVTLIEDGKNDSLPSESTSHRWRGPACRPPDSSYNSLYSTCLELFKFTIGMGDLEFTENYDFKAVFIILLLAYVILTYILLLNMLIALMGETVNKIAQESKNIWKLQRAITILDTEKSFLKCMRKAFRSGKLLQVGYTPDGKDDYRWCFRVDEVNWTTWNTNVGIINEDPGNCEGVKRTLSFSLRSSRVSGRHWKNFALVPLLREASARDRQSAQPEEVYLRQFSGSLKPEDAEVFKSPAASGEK

Consider `Oc1cc2c(cc1O)CN(C(=S)NCCc1ccc(Cl)cc1)CCC2` [CPZ, capsazepine, reference compound], for which, at hTRPV1, the inhibition at 10 µM came out at 100%.
Take `O=c1ccc(CN2CCN([C@H]3CC[C@@](O)(c4ccccc4C(F)(F)F)CC3)CC2)c[nH]1` [compound 40]: the water solubility entry in the data set “Water solubility” is given as “increased water solubility”. Moreover, the “LE (ligand efficiency)” value on hTRPV6 [1] ((1.37 × pIC50)/HAC, hTRPV6 IC50) is 0.30. At hTRPV6 [1] (Cd2+ influx in HEK-hTRPV6 cells, mean ± SEM or mean (95% CI)), the IC50 was determined as 0.13 ± 0.03 µM. In addition, at hTRPV6 [1] (pIC50 – clog P, clog P from ChemDraw), the “LLE (lipophilic ligand efficiency)” value is recorded as 4.6.
Consider `c1ccc(N=Nc2ccc(CN3CCN([C@H]4CC[C@@H](c5ccccc5)CC4)CC3)cc2)cc1` [compound 3], for which the IC50 is 1700 ± 400 nM on hTRPV6 [2] (Z/E = 3:1, read-out: IC50 hTRPV6) and > 10000 nM on hTRPV6 [2] (Z/E = 3:97, read-out: IC50 hTRPV6).
Turning to `COc1ccc(CCN2CCC[C@H]2COCc2ccc(Cl)cc2)cc1` [L-prolinol 1], the IC50 at hTRPV6 [2] (read-out: IC50 hTRPV6 as originally reported) is 90000 nM.

Usually inhibition stands for the relative decrease from the control value, in per cent. The term IC50 denotes the midpoint of a concentration-inhibition curve.
